Test results reported in patent publication US4002530A, “6-Aminopenicillanic acid derivative” (Recherche et Industrie Therapeutiques (R.I.T.), priority 1975, dated 1977).
In brackets after ≈: the same amount, converted by molar mass. Structures can show the parent of a compound that is named as a salt. Where two headings read alike, the source gives them in different places.

Assays:
physchem = format: physicochemical; conditions: for half-life: reconstituted gastric juice, pH 1.3
Description: Antibiotic RIT D-2214 can be colorimetrically assayed by the classical hydroxylamine method of penicillin assay. […] Recoveries were estimated according to the hydroxylamine assay method.

Salmonella meleagridis = assay: broth dilution test, minimum inhibitory concentration; format: cell-based; conditions: about 20 hours at 35° C, tested as monoammonium salt
Aerobacter aerogenes = assay: as above; format: cell-based; conditions: Klebsiella aerogenes, read-out: Minimum Inhibitory concentration
[1] = test system: Klebsiella pneumoniae SK&F 4200; assay: mice protection test; format: in vivo; conditions: 72 h, one hour after intravenous infection, observed 3 days, read-out: ED50 (total dose required to protect 50% of the infected mice)
Procedure: (§1) Comparative trials with ampicillin were performed in vivo according to the usual mice protection test procedure. The test compound was administered in graded dilutions to mice either subcutaneously (s.c.) in water or orally (or.) in combination with calcium carbonate one hour after intravenous infection with uniformly lethal doses of the test organism.

Escherichia coli 9 = assay: mice protection test; format: in vivo; conditions: Escherichia coli, 9, sc, 72 h; s.c., one hour after intravenous infection, observed 3 days; read-out: ED50 (total dose required to protect 50% of the infected mice)
Procedure: as §1

[2] = test system: Salmonella enteritidis 24; assay: mice protection test; format: in vivo; conditions: Salmonella enterica, sc, 72 h, s.c., one hour after intravenous infection, observed 3 days, read-out: ED50 (total dose required to protect 50% of the infected mice)
Procedure: as §1

Shigella flexneri 25 = assay: mice protection test; format: in vivo; conditions: Shigella flexneri, 25, sc, 72 h; s.c., one hour after intravenous infection, observed 3 days; read-out: ED50 (total dose required to protect 50% of the infected mice)
Procedure: as §1

Escherichia coli 47 = assay: mice protection test; format: in vivo; conditions: Escherichia coli, 47, sc, 72 h; s.c., one hour after intravenous infection, observed 3 days; read-out: ED50 (total dose required to protect 50% of the infected mice)
Procedure: as §1

Salmonella panama 20 = assay: mice protection test; format: in vivo; conditions: Salmonella enterica, 20, sc, 72 h; s.c., one hour after intravenous infection, observed 3 days; read-out: ED50 (total dose required to protect 50% of the infected mice)
Procedure: as §1

[3] = test system: Salmonella brandebourg 22; assay: mice protection test; format: in vivo; conditions: Salmonella, 22, sc, 72 h; s.c., one hour after intravenous infection, observed 3 days; read-out: ED50 (total dose required to protect 50% of the infected mice)
Procedure: as §1

Proteus mirabilis 11 = assay: mice protection test; format: in vivo; conditions: Proteus mirabilis, 11, sc, 72 h; s.c., one hour after intravenous infection, observed 3 days; read-out: ED50 (total dose required to protect 50% of the infected mice)
Procedure: as §1

[4] = test system: Vibrio parahaemoliticus 194; assay: mice protection test; format: in vivo; conditions: Vibrio, 194, 72 h; oral with calcium carbonate, one hour after intravenous infection, observed 3 days; read-out: ED50 (total dose required to protect 50% of the infected mice)
Procedure: as §1

[5] = test system: Staphylococcus aureus 663; assay: mice protection test; format: in vivo; conditions: Staphylococcus aureus, 663, sc, 72 h; s.c., one hour after intravenous infection, observed 3 days; read-out: ED50 (total dose required to protect 50% of the infected mice)
Procedure: as §1

Proteus morganii = assay: broth dilution test, minimum inhibitory concentration; format: cell-based; conditions: Morganella morganii, about 20 hours at 35° C, tested as monoammonium salt
Bacillus subtilis = assay: as above; format: cell-based; conditions: about 20 hours at 35° C, tested as monoammonium salt
Shigella sonnei = assay: as above; format: cell-based; conditions: about 20 hours at 35° C, tested as monoammonium salt
Procedure: (§2) Antibiotic RIT D-2214 has been tested in form of the mono ammonium salt in position 3 of the penam nucleus and, for that reason, is herein below charcterized as this monoammonium salt.
(§3) The inhibitory levels were determined by the broth dilution test. A series of tubes containing varied concentrations of the monoammonium salt of antibiotic RIT D-2214 were inoculated with the test organism to determine the minimum concentration of the ammonium salt of antibiotic RIT D-2214 in mcg/ml. in the broth substrate which inhibited organism growth for a period of about twenty hours at 35° C.

Staphylococcus aureus = assay: as above; format: cell-based; conditions: about 20 hours at 35° C, tested as monoammonium salt
Procedure: as §2, §3

Salmonella typhi = assay: as above; format: cell-based; conditions: Salmonella enterica, 20 h, read-out: Minimum Inhibitory concentration
Salmonella panama = assay: as above; format: cell-based; conditions: Salmonella enterica, about 20 hours at 35° C, tested as monoammonium salt
Klebsiella pneumoniae = assay: as above; format: cell-based; conditions: about 20 hours at 35° C, tested as monoammonium salt
Alcaligenes viscolactis = assay: agar-diffusion method; format: cell-based
Description: The testing of samples can be carried out by the well known agar-diffusion method on Petri dishes or on plates.

in vivo [6] = assay: in vivo; parameters: species or system mice; conditions: mouse, sc, 20 mg/kg
Description: (§4) Plasma samples were adequately diluted with sterile water and assayed according to the usual agar diffusion method, using Bacillus subtilis ATCC 6633 as the test organism.

in vivo [7] = assay: in vivo; parameters: species or system dogs; conditions: dog, sc, 20 mg/kg
Description: as §4

Proteus mirabilis = assay: broth dilution test, minimum inhibitory concentration; format: cell-based; conditions: read-out: Minimum Inhibitory concentration
Corynebacterium xerosis = assay: as above; format: cell-based; conditions: about 20 hours at 35° C, tested as monoammonium salt
Salmonella typhimurium = assay: as above; format: cell-based; conditions: Salmonella enterica, about 20 hours at 35° C, tested as monoammonium salt
E. coli Pen. resistant = assay: as above; format: cell-based; conditions: Escherichia coli, penicillin resistant, about 20 hours at 35° C, tested as monoammonium salt
Brucella abortus = assay: microbe, parasite or virus in culture; format: cell-based; conditions: 20 h, read-out: Minimum Inhibitory concentration
[8] = stability in water solution; format: physicochemical; conditions: 4° C, not more than 7 days
Vibrio el tor = assay: broth dilution test, minimum inhibitory concentration; format: cell-based; conditions: about 20 hours at 35° C, tested as monoammonium salt
Alcaligenes faecalis = assay: as above; format: cell-based; conditions: about 20 hours at 35° C, tested as monoammonium salt
in vivo [9] = assay: in vivo; parameters: species or system rats; conditions: rat, sc, 20 mg/kg
Description: as §4

[10] = test system: Gram-positive and Gram-negative bacteria; assay: inhibitory activity against growth of bacteria; format: cell-based; conditions: Gram-positive and Gram-negative bacteria
Procedure: as §2, §3

Salmonella paratyphi = assay: broth dilution test, minimum inhibitory concentration; format: cell-based; conditions: Salmonella enterica, 20 h, read-out: Minimum Inhibitory concentration
Salmonella anatum = assay: as above; format: cell-based; conditions: Salmonella enterica, about 20 hours at 35° C, tested as monoammonium salt
[11] = test system: Staphylococcus aureus Pen.resist.; assay: as above; format: cell-based; conditions: penicillin resistant, about 20 hours at 35° C, tested as monoammonium salt
[12] = test system: Gram-positive and Gram-negative microorganisms; assay: in vivo activity against microorganisms; parameters: species or system mice
Procedure: as §1

[13] = test system: Bordetella bronchiseptica; assay: broth dilution test, minimum inhibitory concentration; format: cell-based; conditions: about 20 hours at 35° C, tested as monoammonium salt
Pseudomonas aeruginosa = assay: as above; format: cell-based; conditions: about 20 hours at 35° C, tested as monoammonium salt
[14] = test system: Staphylococcal preparation of β-lactamase; assay: destruction by Staphylococcal preparation of β-lactamase (Penase Leo); format: biochemical
Escherichia coli = assay: broth dilution test, minimum inhibitory concentration; format: cell-based; conditions: read-out: Minimum Inhibitory concentration
[15] = broth dilution, about 20 hours at 35° C, tested as monoammonium salt

With CC1(C)S[C@@H]2[C@H](NC(=O)CSC[C@@H](N)C(=O)O)C(=O)N2[C@H]1C(=O)O [RIT D-2214, 6-(D)-{[(2-amino-2-carboxy)-ethylthio]-acetamido}-penicillanic acid] the “stability under acid conditions” value (physchem) was “relatively stable under acid conditions”, the half-life (physchem) was 25 min and the MIC (Salmonella meleagridis) was 0.6 µg/mL. The MIC (Aerobacter aerogenes; 20 h) was 1.25 µg/mL (≈ 3.31 µM), the ED50 ([1]; oral with calcium carbonate) was 25.3 mg/kg and the ED50 ([1]; sc, s.c.) was less than 11 mg/kg. For the same molecule, the ED50 (Escherichia coli 9) was 10.9 mg/kg, the ED50 [2] was 13.5 mg/kg and the ED50 (Shigella flexneri 25) was 52.5 mg/kg. It also gave an ED50 (Escherichia coli 47) of less than 10 mg/kg, an ED50 (Salmonella panama 20) of less than 10 mg/kg and an ED50 [3] of 13 mg/kg. It also gave an ED50 (Proteus mirabilis 11) of less than 10 mg/kg, an ED50 [4] of 22.7 mg/kg and an ED50 [5] of less than 11 mg/kg. It also gave an MIC (Proteus morganii) of 40 µg/mL, an MIC (Bacillus subtilis) of 0.3 µg/mL and an MIC (Shigella sonnei) of 20 µg/mL. The MIC (Staphylococcus aureus) was 1.25 µg/mL, the MIC (Salmonella typhi) was 0.6 µg/mL (≈ 1.59 µM) and the MIC (Salmonella panama) was 40 µg/mL. The MIC (Klebsiella pneumoniae) was 80 µg/mL, the “sensitivity of Alcaligenes viscolactis” value (Alcaligenes viscolactis) was “very high sensitivity” and the concentration at 5 min (in vivo [6]) was 13000 ng/mL. It also gave a concentration at 0.25 h (in vivo [6]) of 15000 ng/mL, a concentration at 0.5 h (in vivo [6]) of 10000 ng/mL and a concentration at 1 h (in vivo [6]) of 6000 ng/mL. For the same molecule, the concentration at 0.25 h (in vivo [7]) was 18000 ng/mL, the concentration at 0.5 h (in vivo [7]) was 23000 ng/mL and the concentration at 1 h (in vivo [7]) was 22500 ng/mL. It also gave a concentration at 2 h (in vivo [7]) of 9000 ng/mL, an MIC (Proteus mirabilis; 20 h) of 1.25 µg/mL (≈ 3.31 µM) and an MIC (Corynebacterium xerosis) of less than 0.02 µg/mL. It also gave an MIC (Salmonella typhimurium) of 40 µg/mL, an MIC (E. coli Pen. resistant) of 80 µg/mL and an MIC (Brucella abortus) of 20 µg/mL (≈ 53 µM). For the same molecule, the “stability in water solution” value [8] was “relatively stable”, the MIC (Vibrio el tor) was 0.6 µg/mL and the MIC (Alcaligenes faecalis) was 1.6 µg/mL. It also gave a concentration at 5 min (in vivo [9]) of 12000 ng/mL, a concentration at 0.25 h (in vivo [9]) of 23000 ng/mL and a concentration at 0.5 h (in vivo [9]) of 17000 ng/mL. The concentration at 1 h (in vivo [9]) was 12000 ng/mL, the concentration at 2 h (in vivo [9]) was 7500 ng/mL and the “inhibitory activity against the growth of bacteria” value [10] was “exhibits inhibitory activity”. For the same molecule, the MIC (Salmonella paratyphi) was 1.25 µg/mL (≈ 3.31 µM), the MIC (Salmonella anatum) was 0.6 µg/mL and the MIC [11] was 80 µg/mL. The in vivo activity ([12]; Gram-positive and Gram-negative microorganisms) was “exhibits in vivo activity”, the “efficacy when administered orally” value ([12]; oral) was “less advantageous when administered orally” and the MIC [13] was 0.6 µg/mL. The MIC (Pseudomonas aeruginosa) was 80 µg/mL, the “destruction by β-lactamase” value [14] was “rapidly destroyed” and the MIC (Escherichia coli; 20 h) was 1.25 µg/mL (≈ 3.31 µM).
CC1(C)S[C@@H]2[C@H](NC(=O)CSC[C@H](N)C(=O)O)C(=O)N2[C@H]1C(=O)O [RIT L-2214] gave an MIC (Aerobacter aerogenes; [15]) of 20 µg/mL, an MIC (Proteus morganii) of 80 µg/mL and an MIC (Bacillus subtilis) of 0.31 µg/mL. It also gave an MIC (Shigella sonnei) of 80 µg/mL, an MIC (Staphylococcus aureus) of 1.25 µg/mL and an MIC (Klebsiella pneumoniae) of 80 µg/mL. It also gave an MIC (Proteus mirabilis; [15]) of 20 µg/mL, an MIC (E. coli Pen. resistant) of 80 µg/mL and an MIC (Salmonella paratyphi) of 20 µg/mL (≈ 53 µM). The MIC [11] was 80 µg/mL, the MIC (Pseudomonas aeruginosa) was 80 µg/mL and the MIC (Escherichia coli; [15]) was 40 µg/mL.
With CC1(C)S[C@@H]2[C@H](NC(=O)CSC[C@@H](N)C(=O)O)C(=O)N2[C@H]1C(=O)O [monoammonium salt of antibiotic RIT D-2214] the “inhibitory activity against the growth of bacteria” value [10] was “strong activity”.
CC1(C)S[C@@H]2[C@H](NC(=O)Cc3ccccc3)C(=O)N2[C@H]1C(=O)O [penicillin G, reference compound] gave a half-life (physchem) of 7 min.
